Laboratory results taken from US20120318262A1 (priority 2011, published 2012).

Columns and labels:
Wnt signaling = experiment: TOPflash reporter assay, HEK 293 STF cells treated with Wnt3a; format: cell-based
Protocol: Graph represents mean±s.e.m of TOPflash signal normalized to cell number (performed in quadruplicate). […] Data shown represent mean of four independent amplification reactions, graphed as relative expression to unstimulated cells. Expression levels were normalized to β-actin mRNA. Error bars, RQ values with 95% confidence.
(§1) CK1α immunoprecipitated from lysates was incubated with purified β-catenin (100 nM) in kinase assay containing (^γ32P)ATP. Samples were processed for SDS-PAGE/autoradiography. As control, immunoprecipitates were treated with the CK1 inhibitor, CKI-7 (1 μM). […] HA immunoprecipitates were analyzed by LCMS. Graph represents mean±s.e.m. of relative abundance of pyrvinium normalized to bead control (performed in triplicate). […] (FIG. 9C) Structure of VU-WS113. […] (FIG. 9F) CK1α (100 nM) was incubated with recombinant casein (100 nM) in the presence or absence of compounds in a kinase reaction containing [γ32P]ATP. […] Mean±s.e.m. is shown (performed in triplicates).

C57Bl/6 mice [1] = format: in vivo; settings: p<0.05
From the text: FIGS. 5A-D. Mouse MI model. Representative mouse EKG tracings pre (FIG. 5A) and post (FIG. 5B) coronary artery ligation. […] Arrows mark lateral and posterior left ventricle (LV). LVIDD, LVIDS=LV internal diameter at systole and […], respectively. RV=right ventricle. […] Cardiac dimensions were obtained from 2-D guided M-mode images (100 frames/sec) and were read blinded using short axis and a parasternal long-axis views with the leading edge method. All echo measurements were averaged over 3 consecutive beats on unsedated mice at 7 and 30 days after infarction. Statistical significance assessed by the Wilcoxon rank sum test.
Ventricular remodeling and cardiac functional parameters will be assessed by echo.
Mammalian cardiomyocytes irreversibly withdraw from the cell cycle soon after birth and undergo terminal differentiation. […] Therefore, cardiac injury causes permanent myocardial loss and cardiac dysfunction. […] Proliferation was assessed by immunostaining for Ki-67.

CK1α = CK1α (Homo sapiens, UniProt P48729); experiment: kinase activity of purified recombinant CK1α (Tau, casein substrates; kinase panel); format: biochemical
Protocol: as §1, with “LCMS.” for “LCMS. Graph represents mean±s.e.m. of relative abundance of pyrvinium normalized to bead control (performed in triplicate).”

C57Bl/6 mice [2] = experiment: 2 mm ear punch wound model; format: in vivo; settings: day 30
From the text: (FIG. 8A) Low magnification (4×) view of H&E stained slide showing epithelial repair of wounded skin treated with 211 at 30 days after injury. […] (FIGS. 8C-D) represent H&E of low (10×) and high (20×) magnification view of pyrvinium-treated ears. (FIGS. 8E-F) Trichrome blue staining showing low (FIG. 8E, 10×) and high power (FIG. 8F, 20×) view of pyrvinium-repaired ear.
The ears of six month old C57BL/6 mice were wounded by a 2 mm ear punch (n=3). […] The wounds were monitored over a period of 1 month and the digital photographs of the healing ears were taken periodically. […] The mice were sacrificed at day 30 and histological analysis of the wounded ear was performed.
FIGS. 8C-D show H&E stained slide of low (10×) and high (20×) magnifications of pyrvinium-treated ears.

C57Bl/6 mice [3] = experiment: myocardial infarct model, daily IP injection, Ki67/Sca1 histology
From the text: Myocardial infarcts were induced in male C57Bl/6 mice by coronary ligation. A sham-injured cohort underwent all aspects of the procedure except ligation of the coronary artery. […] Mice were sacrificed (n=3 for each time point and each condition) on days 7, 9 and 15 after injury. Hearts were isolated for histologic analysis.

CK1α, sequence (P48729 whole entry): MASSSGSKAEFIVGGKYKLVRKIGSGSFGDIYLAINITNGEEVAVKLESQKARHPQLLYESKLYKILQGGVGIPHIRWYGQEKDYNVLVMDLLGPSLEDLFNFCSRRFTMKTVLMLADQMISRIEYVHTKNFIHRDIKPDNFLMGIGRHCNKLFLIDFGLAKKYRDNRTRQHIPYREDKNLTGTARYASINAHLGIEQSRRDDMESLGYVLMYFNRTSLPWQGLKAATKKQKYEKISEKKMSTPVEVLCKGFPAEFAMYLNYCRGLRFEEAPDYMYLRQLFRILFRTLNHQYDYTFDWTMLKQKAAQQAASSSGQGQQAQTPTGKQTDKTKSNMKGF

| SMILES | IC50 (Wnt signaling; Wnt3a-conditioned media, 24 hours, read-out: IC50 of TOPflash (Wnt signaling) inhibition) | average difference in fractional shortening between days 7 and 30 (C57Bl/6 mice [1]) | inhibition of TOPflash / Wnt signaling (Wnt signaling; Wnt3a) | activation of CK1α (CK1α) | histology of wounded ear (C57Bl/6 mice [2]; listed as Cmpd 113) | histology of wounded ear (C57Bl/6 mice [2]; listed as compound 113) | Ki-67+ cells co-labeled with Sca1+ antibody (C57Bl/6 mice [3]; 40 μg/kg IP) | Sca1+ CPCs share of Wnt-inhibitor responsive population (C57Bl/6 mice [3]; 40 μg/kg IP) | increase in left ventricular, peri-infarct Ki67+ cells (C57Bl/6 mice [3]; 40 μg/kg IP daily through day 6, 7-9 days after MI) | post-infarct proliferation of cardiac progenitors (C57Bl/6 mice [3]; 7 d after injury, control C-211) |
| --- | --- | --- | --- | --- | --- | --- | --- | --- | --- | --- |
| Cc1cc(/C=C/c2ccc3cc(N(C)C)ccc3[n+]2C)c(C)n1-c1ccccc1 [pyrvinium, 6-(Dimethylamino)-2-[2-(2,5-dimethyl-1-phenyl-1H-pyrrol-3-yl)ethenyl]-1-methylquinolinium, reference compound] | ~10 nM | 22.3±5.2 | – | – | – | – | – | – | – | – |
| Cc1cc(C(=O)Nc2ccc3cc(CN4CCOCC4)ccc3n2)c(C)n1-c1ccccc1 [VU-WS113, 2,5-dimethyl-N-(6-(morpholinomethyl)quinolin-2-yl)-1-phenyl-1H-pyrrole-3-carboxamide] | – | – | retained the capacity to inhibit Wnt signaling | activate CK1α | injured hole was repaired | Injured hole was repaired | at least 50% | > 60% | 10-13 fold | significantly enhances post-infarct proliferation of cardiac progenitors |
